Data: patent US20240325458A1, “COMPOSITION FOR PRODUCING BILE ACIDS” (priority 2020, published 2024)

Experiments:
[1] = test system: T helper 17 (TH17) cells; settings: reported [30]; cited from earlier work
[2] = biological target: estrogen receptor R (ER) (Homo sapiens, UniProt Q92731); settings: reported [63, 64]; cited from earlier work
[3] = test system: prostate cancer cell; settings: by reducing E-cadherin expression; reported [63, 64]; cited from earlier work
[4] = biological target: T1, androgen receptor (AR) (Homo sapiens, UniProt P10275); settings: reported [28, 63, 64]; cited from earlier work
T1 sequence (P10275 1-920): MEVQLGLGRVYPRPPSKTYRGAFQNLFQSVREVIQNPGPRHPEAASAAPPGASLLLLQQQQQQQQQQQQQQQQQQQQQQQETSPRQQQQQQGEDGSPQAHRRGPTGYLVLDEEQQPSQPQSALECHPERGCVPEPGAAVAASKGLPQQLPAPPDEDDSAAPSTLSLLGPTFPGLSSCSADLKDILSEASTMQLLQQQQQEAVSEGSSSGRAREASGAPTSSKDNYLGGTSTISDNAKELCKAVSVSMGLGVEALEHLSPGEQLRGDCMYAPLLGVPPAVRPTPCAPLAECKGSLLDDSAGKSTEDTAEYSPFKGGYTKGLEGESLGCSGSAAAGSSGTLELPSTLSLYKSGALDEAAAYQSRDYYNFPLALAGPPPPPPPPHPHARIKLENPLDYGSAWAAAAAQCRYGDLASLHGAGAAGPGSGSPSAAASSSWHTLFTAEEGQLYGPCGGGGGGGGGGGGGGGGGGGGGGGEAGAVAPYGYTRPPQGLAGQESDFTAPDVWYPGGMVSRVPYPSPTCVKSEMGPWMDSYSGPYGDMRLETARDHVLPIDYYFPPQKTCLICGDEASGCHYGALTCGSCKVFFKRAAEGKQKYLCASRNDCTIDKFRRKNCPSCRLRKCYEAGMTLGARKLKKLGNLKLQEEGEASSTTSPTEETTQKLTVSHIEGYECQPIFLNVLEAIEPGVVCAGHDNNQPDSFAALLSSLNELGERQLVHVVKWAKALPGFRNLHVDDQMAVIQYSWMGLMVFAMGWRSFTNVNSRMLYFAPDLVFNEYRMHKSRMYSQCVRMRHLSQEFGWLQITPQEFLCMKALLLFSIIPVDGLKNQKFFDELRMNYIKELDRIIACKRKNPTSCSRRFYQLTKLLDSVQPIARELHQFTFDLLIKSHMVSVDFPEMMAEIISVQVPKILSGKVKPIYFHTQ

[5] = test system: Clostridioides difficile; settings: known [36, 40, 41]; cited from earlier work
[6] = test system: Lactobacillus strain; test: Growth inhibition of intestinal symbiotic bacteria; type: cell-based
[7] = test system: C. sporogenes, C. indolis, and C. HGF2 (innocuum); test: Scanning electron microscopy of symbiotic bacteria; type: cell-based; settings: 2.5 μM isoalloLCA, 5 hours, WCA medium
Method: FIG. 16B is a set of photographs showing typical results obtained by observing C. difficile 630, C. sporogenes, C. indoli, and C. HGF2 (innocuum) with a scanning electron microscope after culturing for 5 hours in a WCA medium containing control or 2.5 μM isoalloLCA. […] Scale bars indicate 5.0 μm and 1.0 μm. The arrowheads indicate a shape change after isoalloLCA treatment.
(§1) Bacterial cultures incubated with or without isoalloLCA were collected after 5 hr incubation for electron microscopy samples. For scanning electron microscopy, 10-30 μL of culture was spotted on the Nano percolator membrane (JEOL) and fixed in freshly prepared 2.5% glutaraldehyde solution. After overnight fixation at 4° C., samples were washed in 0.1 M phosphate buffer (pH 7.4, Muto Pure Chemicals), fixed with 1.0% osmium tetroxide (TAAB Laboratories) for 2 hr at 4° C., and treated with a series of increasing concentrations of ethanol. Samples were dried up with critical point dryer (CPD300, Leica Biosystems) and coated with about 2 nm thickness of osmium using a conductive osmium coater (Neoc-ST, Meiwafosis). SEM images were acquired using the SU6600 (Hitachi High Tech) at electron voltage of 5 keV.

[8] = test system: C. difficile 630; test: Bacterial growth inhibition assay (OD 600); type: cell-based, Clostridioides difficile
From the text: (§2) Clostridioides difficile strain 630 (ATCC BAA-1382), Clostridioides difficile VPI 10463 (ATCC 43255), vancomycin-resistant Enterococcus faecium (ATCC 700221), Streptococcus dysgalactiae subsp. equisimilis (ATCC 12394), carbapenemase-resistant Klebsiella pneumoniae (ATCC BAA-1705), and Salmonella enterica subsp. enterica (ATCC 14028) were purchased from the American Type Culture Collection (ATCC).
(§3) From fresh colonies grown on BHK blood agar plates (Kyokuto), a primary suspension adjusted to OD 600 of 0.63 was prepared in WCA medium. Subsequently, the secondary suspension was prepared by diluting 100 μL of primary suspension into a total of 2.4 mL of medium. 10 μL of secondary suspension was inoculated to a total of 200 μL of medium containing varying concentrations ([…], 6.25, 12.5, 25, and 50 μM) of bile acids; DCA, LCA, 3-oxoLCA, 3-oxoalloLCA, isoLCA, alloLCA, and isoalloLCA. The growth of bacteria was monitored every 0.5-1 hr by OD 600 measurement using a microplate reader (Sunrise Thermo, Tecan) set at 37° C. with a 60 see shaking before each time point. For determining the minimal inhibitory concentration, 10 μL of secondary suspension was inoculated into a total of 200 μL of medium containing 0.25 to 50 μM of isoalloLCA.
Therefore, next, it was investigated whether 3-oxoLCA and isoalloLCA had the ability to inhibit the growth of C. difficile. […]

[9] = test system: C. difficile 630; test: Electron microscopy (SEM/TEM) after isoalloLCA treatment; type: cell-based, Clostridioides difficile; settings: 8 μM isoalloLCA, 5 hours, WCA medium
Method: (§4) FIG. 4C is typical scanning electron microscope images (SEM, left panels) and transmission electron microscope images (TEM, right panels) when C. difficile 630 and VRE were cultured for 5 hours in a WCA medium containing or not containing 8 μM isoalloLCA. The scale bars indicate 1.0 μm (SEM), 200 nm (C. difficile 630 TEM), and 500 nm (VRE TEM). The arrows indicate the shape change after isoalloLCA treatment.
as §1
(§5) For transmission electron microscopy, microbial pellets were prepared by centrifugation (13,000 rpm, 2 min) from 25 mL bacterial cultures. […]

[10] = test system: gram-positive symbiotic bacteria; test: Growth inhibition of intestinal symbiotic bacteria; type: cell-based
[11] = test system: vancomycin-resistant Enterococcus faecium (VRE); test: Bacterial growth inhibition assay (OD 600); type: cell-based
From the text: as §2, §3

[12] = test system: C. difficile VPI10463; test: Bacterial growth inhibition assay (OD 600); type: cell-based, Clostridioides difficile; settings: toxin-producing strain
From the text: as §2, §3

[13] = test system: VRE; test: Electron microscopy (SEM/TEM) after isoalloLCA treatment; type: cell-based, Enterococcus faecium; settings: 8 μM isoalloLCA, 5 hours, WCA medium
Method: as §4, §1, §5

[14] = test system: gram-negative pathogens; test: Bacterial growth inhibition assay, gram-negative pathogen panel; type: cell-based; settings: all bacteria in the gram-negative pathogen panel
[15] = test system: human fecal microbiota; test: Culturing human feces with bile acids, 16S rRNA gene sequencing; type: cell-based; settings: 50 μM, 48 hr
Method: Human fecal culture was conducted in 96-deep well plates (Treff Lab) using stool samples obtained from young and healthy donors. […] Fecal cultures with a final concentration of 50 μM bile acids (LCA, 3-oxoLCA, and isoalloLCA) were incubated anaerobically for 48 hr at 37° C. DNA was extracted from the fecal sample culture for 16S metagenomic sequencing as described above.
In addition, in order to assess the effects of isoalloLCA on the complex normal intestinal microbiota, human fecal microbiota from young, healthy sample donors were cultured using isoalloLCA, 3-oxoLCA, LCA, or control systems and analyzed for bacterial microbiota changes by 16S rRNA gene sequencing.

[16] = test system: Treg cells; settings: reported [30]; cited from earlier work
[17] = test system: gram-negative symbiotic bacteria; test: Growth inhibition of intestinal symbiotic bacteria; type: cell-based; settings: most gram-negative symbiotic bacteria such as Bacteroides; WCA and BHI media
[18] = compared to other bile acid compounds

estrogen receptor R (ER), sequence (Q92731 whole entry): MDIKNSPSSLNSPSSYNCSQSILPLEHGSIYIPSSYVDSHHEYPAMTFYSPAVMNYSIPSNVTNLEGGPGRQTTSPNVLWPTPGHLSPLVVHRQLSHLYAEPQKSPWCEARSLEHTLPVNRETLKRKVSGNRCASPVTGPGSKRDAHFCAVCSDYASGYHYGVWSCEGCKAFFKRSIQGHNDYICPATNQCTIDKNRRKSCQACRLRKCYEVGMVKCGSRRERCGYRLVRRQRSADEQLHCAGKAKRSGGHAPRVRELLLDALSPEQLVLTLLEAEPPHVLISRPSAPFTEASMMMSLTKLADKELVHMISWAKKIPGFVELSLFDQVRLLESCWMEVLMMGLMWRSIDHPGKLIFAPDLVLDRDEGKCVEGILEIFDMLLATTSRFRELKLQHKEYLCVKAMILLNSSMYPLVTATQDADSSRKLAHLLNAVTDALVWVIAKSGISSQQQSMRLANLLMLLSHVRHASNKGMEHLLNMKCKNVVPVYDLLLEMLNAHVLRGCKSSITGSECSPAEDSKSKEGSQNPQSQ

C[C@H](CCC(=O)O)[C@H]1CC[C@H]2[C@@H]3CC[C@@H]4CC(=O)CC[C@]4(C)[C@H]3CC[C@]12C [St 3-oxoLCA, 3-Oxo-lithocholic acid, reference compound]
TH17 cell suppression [1]: suppress T helper 17 (TH17) cells

C[C@]12CC[C@H](O)C[C@@H]1CC[C@@H]1[C@@H]2CC[C@]2(C)[C@@H](O)CC[C@@H]12 [3β-androstanediol]
estrogen receptor activation [2]: activates estrogen receptor R (ER) | prostate cancer cell migration [3]: inhibits prostate cancer cell migration | binding to AR [4]: without binding to AR

C[C@H](CCC(=O)O)[C@H]1CC[C@H]2[C@@H]3CC[C@@H]4C[C@@H](O)CC[C@]4(C)[C@H]3CC[C@]12C [isoLCA, Iso-lithocholic acid]
inhibition of growth of Clostridioides difficile [5]: inhibiting the growth | TH17 cell suppression [1]: suppress T helper 17 (TH17) cells

C[C@H](CCC(=O)O)[C@H]1CC[C@H]2[C@@H]3CC[C@H]4C[C@@H](O)CC[C@]4(C)[C@H]3CC[C@]12C [isoalloLCA, Iso-allo-lithocholic acid]
resistance to the inhibitory effect [6]: highly resistant | cell wall structure by scanning electron microscopy [7]: cell wall structure of the symbiotic bacteria was maintained | minimum inhibitory concentration (MIC90) required to prevent growth of 90% or more ([8]; WCA medium): 2.0 µM | growth inhibition ([8]; in vitro, optical density over time): strongly inhibited the growth | bactericidal effect, morphological and hyperfine structure changes [9]: bactericidal and results in morphological changes and hyperfine structure changes | MIC90 value of the symbiotic strains relative to pathogens [10]: generally higher than that of the pathogens | resistance of symbiotic strain in BHI medium compared to WCA medium ([10]; BHI medium rich in peptone and amino acids): increased resistance | effect on growth ([10]; WCA and BHI media): reliably inhibited the growth | growth inhibition [11]: Strong growth inhibition | growth inhibition [12]: Strong growth inhibition | bactericidal effect, morphological and hyperfine structure changes [13]: bactericidal and results in morphological changes and hyperfine structure changes | resistant at the highest concentration tested [14]: > 50 µM | change in gram-negative bacteria (Bacteroides, Alistipes) [15, 18]: corresponding increase | change in gram-positive bacteria (Clostridium, Faecalibacterium, Bifidobacterium, Streptococcus) [15, 18]: more pronounced decrease | α-diversity (Shannon index) of fecal culture ([15]; feces of young healthy donors): not significantly affected | bacterial community structure ([15]; phylum level): clear widespread change in the bacterial community structure | Treg cell induction [16]: induces Treg cells | effect on growth [17]: did not significantly affect the growth
